Experimental findings from BindingDB's records for doi:10.1021/jm00007a013 (Chul Research Center, 1995) are described below.

The assay in a line: In vitro inhibition of DHT (dihydrotestosterone) on proliferation of androgen-sensitive cancer Schionogi (SC-3) cells.
`CCN(CC)C(=O)[C@H]1CCC2C3CC[C@H]4N(C)C(=O)CC[C@]4(C)C3CC[C@@]21C` (stereo partly drawn) [(4aR,6aS,7S,11aR)-1,4a,6a-Trimethyl-2-oxo-hexadecahydro-indeno[5,4-f]quinoline-7-carboxylic acid diethylamide]: the IC50 came to 463 nM.

`CCC(CC)N(C=O)[C@H]1CCC2C3CC[C@H]4N(C)C(=O)CC[C@]4(C)C3CC[C@@]21C` (stereo partly drawn) [N-(1-Ethyl-propyl)-N-((4aR,6aS,7S,11aR)-1,4a,6a-trimethyl-2-oxo-hexadecahydro-indeno[5,4-f]quinolin-7-yl)-formamide] showed an IC50 of 90 nM.

Turning to `CN1C(=O)CC[C@]2(C)C3CC[C@@]4(C)C(CC[C@@H]4N(C=O)CCC(C)(C)C)C3CC[C@@H]12` (stereo partly drawn) [N-(3,3-Dimethyl-butyl)-N-((4aR,6aS,7S,11aR)-1,4a,6a-trimethyl-2-oxo-hexadecahydro-indeno[5,4-f]quinolin-7-yl)-formamide], the concentration for half-maximal inhibition (IC50) turned out to be 171 nM.

The molecule `CC(C)CCN(C=O)[C@H]1CCC2C3CC[C@H]4N(C)C(=O)CC[C@]4(C)C3CC[C@@]21C` (stereo partly drawn) [N-(3-Methyl-butyl)-N-((4aR,6aS,7S,11aR)-1,4a,6a-trimethyl-2-oxo-hexadecahydro-indeno[5,4-f]quinolin-7-yl)-formamide] showed an IC50 of 46 nM.

`CCCCN(C=O)[C@H]1CCC2C3CC[C@H]4N(C)C(=O)CC[C@]4(C)C3CC[C@@]21C` (stereo partly drawn) [N-Butyl-N-((4aR,6aS,7S,11aR)-1,4a,6a-trimethyl-2-oxo-hexadecahydro-indeno[5,4-f]quinolin-7-yl)-formamide] yielded an IC50 of 166 nM.

The molecule `CCCCCCCN(C=O)[C@H]1CCC2C3CC[C@H]4N(C)C(=O)CC[C@]4(C)C3CC[C@@]21C` (stereo partly drawn) [N-Heptyl-N-((4aR,6aS,7S,11aR)-1,4a,6a-trimethyl-2-oxo-hexadecahydro-indeno[5,4-f]quinolin-7-yl)-formamide] showed an IC50 of 58 nM.

`CCCCCCN(C=O)[C@H]1CCC2C3CC[C@H]4N(C)C(=O)CC[C@]4(C)C3CC[C@@]21C` (stereo partly drawn) [N-Hexyl-N-((4aR,6aS,7S,11aR)-1,4a,6a-trimethyl-2-oxo-hexadecahydro-indeno[5,4-f]quinolin-7-yl)-formamide] came in with an IC50 of 89 nM.

`CC(C)CN(C=O)[C@H]1CCC2C3CC[C@H]4N(C)C(=O)CC[C@]4(C)C3CC[C@@]21C` (stereo partly drawn) [N-Isobutyl-N-((4aR,6aS,7S,11aR)-1,4a,6a-trimethyl-2-oxo-hexadecahydro-indeno[5,4-f]quinolin-7-yl)-formamide] showed an IC50 of 994 nM. This IC50 is about 11-fold higher than that of the molecule before.

The molecule `CC(C)N(C=O)[C@H]1CCC2C3CC[C@H]4N(C)C(=O)CC[C@]4(C)C3CC[C@@]21C` (stereo partly drawn) [N-Isopropyl-N-((4aR,6aS,7S,11aR)-1,4a,6a-trimethyl-2-oxo-hexadecahydro-indeno[5,4-f]quinolin-7-yl)-formamide] showed an IC50 of 162 nM.

Consider `CN(C=O)[C@H]1CCC2C3CC[C@H]4N(C)C(=O)CC[C@]4(C)C3CC[C@@]21C` (stereo partly drawn) [N-Methyl-N-((4aR,6aS,7S,11aR)-1,4a,6a-trimethyl-2-oxo-hexadecahydro-indeno[5,4-f]quinolin-7-yl)-formamide], for which the IC50 was found to be 1480 nM.

As to `CCCCCCCCN(C=O)[C@H]1CCC2C3CC[C@H]4N(C)C(=O)CC[C@]4(C)C3CC[C@@]21C` (stereo partly drawn) [N-Octyl-N-((4aR,6aS,7S,11aR)-1,4a,6a-trimethyl-2-oxo-hexadecahydro-indeno[5,4-f]quinolin-7-yl)-formamide], the IC50 stood at 50 nM.

In turn, `CCCCCN(C=O)[C@H]1CCC2C3CC[C@H]4N(C)C(=O)CC[C@]4(C)C3CC[C@@]21C` (stereo partly drawn) [N-Pentyl-N-((4aR,6aS,7S,11aR)-1,4a,6a-trimethyl-2-oxo-hexadecahydro-indeno[5,4-f]quinolin-7-yl)-formamide] registered a concentration for half-maximal inhibition (IC50) of 96 nM.

`CCCN(C=O)[C@H]1CCC2C3CC[C@H]4N(C)C(=O)CC[C@]4(C)C3CC[C@@]21C` (stereo partly drawn) [N-Propyl-N-((4aR,6aS,7S,11aR)-1,4a,6a-trimethyl-2-oxo-hexadecahydro-indeno[5,4-f]quinolin-7-yl)-formamide]: inhibition was half-maximal at 989 nM (IC50).
